Calls of active or inactive are those of the source.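 The calls were made as follows: active = hERG flux cut by over 30% at some tested dose, with a fitted dose response curve; inactive = no hERG inhibition at any dose or no curve.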
Target: Voltage-gated inwardly rectifying potassium channel KCNH2 (Homo sapiens) (UniProt Q12809)
Assay: off-target hERG block by TASK1 inhibitor candidates – FluxOR thallium flux, concentration-response, CHO cells, selectivity assay for TASK1 inhibitor project, SAR follow-up (AID 652194)
Conditions: hERG-expressing cells, FluxOR thallium flux fluorescence; at 30 µM (top of the series)

Voltage-gated inwardly rectifying potassium channel KCNH2 (Homo sapiens), sequence (Q12809 whole entry, looked up): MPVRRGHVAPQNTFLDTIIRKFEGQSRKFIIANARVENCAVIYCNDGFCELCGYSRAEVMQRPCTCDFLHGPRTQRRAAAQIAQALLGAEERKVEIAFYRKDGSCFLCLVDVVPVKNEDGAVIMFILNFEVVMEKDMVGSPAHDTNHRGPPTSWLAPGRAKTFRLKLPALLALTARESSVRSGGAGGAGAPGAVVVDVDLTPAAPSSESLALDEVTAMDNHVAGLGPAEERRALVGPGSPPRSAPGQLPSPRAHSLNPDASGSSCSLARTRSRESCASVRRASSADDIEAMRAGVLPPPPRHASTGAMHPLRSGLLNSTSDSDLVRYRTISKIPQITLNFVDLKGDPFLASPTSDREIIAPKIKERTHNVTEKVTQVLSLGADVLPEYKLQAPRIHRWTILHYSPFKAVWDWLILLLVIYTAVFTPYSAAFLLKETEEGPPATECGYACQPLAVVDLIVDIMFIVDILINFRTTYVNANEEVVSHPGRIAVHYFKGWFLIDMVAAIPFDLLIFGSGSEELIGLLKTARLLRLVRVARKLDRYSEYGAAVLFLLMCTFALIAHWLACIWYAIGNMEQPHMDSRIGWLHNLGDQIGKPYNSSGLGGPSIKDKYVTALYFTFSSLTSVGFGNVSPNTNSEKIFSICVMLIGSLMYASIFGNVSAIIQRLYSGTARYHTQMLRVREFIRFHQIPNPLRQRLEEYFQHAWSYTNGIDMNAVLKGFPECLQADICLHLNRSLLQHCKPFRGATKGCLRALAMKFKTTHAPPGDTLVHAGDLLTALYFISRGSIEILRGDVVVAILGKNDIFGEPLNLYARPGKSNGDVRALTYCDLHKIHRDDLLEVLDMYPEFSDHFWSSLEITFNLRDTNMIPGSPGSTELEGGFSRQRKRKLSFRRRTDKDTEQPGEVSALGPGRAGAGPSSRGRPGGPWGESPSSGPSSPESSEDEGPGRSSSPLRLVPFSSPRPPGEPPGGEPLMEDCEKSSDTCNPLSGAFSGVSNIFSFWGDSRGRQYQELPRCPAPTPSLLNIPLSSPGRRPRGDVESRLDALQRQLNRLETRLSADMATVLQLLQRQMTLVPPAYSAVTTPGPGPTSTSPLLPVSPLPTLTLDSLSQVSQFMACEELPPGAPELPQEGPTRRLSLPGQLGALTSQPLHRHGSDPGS

COc1ccccc1C(=O)Nc1cccc(NC(=O)c2ccccc2)c1
flux ratio, lower = inhibition: inactive

Cc1cccc(C(=O)Nc2cccc(NC(=O)c3ccccc3)c2)c1
flux ratio, lower = inhibition: inactive

— PubChem BioAssay AID652194 (Johns Hopkins Ion Channel Center, 2013)
